Measurements reported in patent publication US20190002436A1, “RESPIRATORY SYNCYTIAL VIRUS INHIBITORS” (MEDIVIR AB, priority 2015, published 2019).

What follows are compounds tested on RSV (Long) (assay: RSV cytopathic effect (CPE)-based viral replication assay). Conditions: human respiratory syncytial virus, HEp-2, 72 h, HEp-2 cells infected with RSV Long at MOI 0.015; 3 days at 37° C.; cell viability by CellTiter-Glo luminescence; read-out: EC50 (nm).
Format: cell-based, respiratory syncytial virus (RSV)
How it was run: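 HEp-2 cells, 2,500 per well in DMEM with 2% heat-inactivated FBS, treated with 10-point compound dilutions and infected with RSV Long at MOI 0.015. After 3 days at 37 °C, 5% CO2, viability read by CellTiter-Glo luminescence; EC50 derived from CPE data.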
Work on CS(=O)(=O)N1CC2(C1)C(=O)N(Cc1ncc3ccccc3c1-c1ccc(F)nc1)c1ccccc12 [Example 78] yielded an EC50 of 0.9 nM. Compound NC(=O)c1ccc(-c2c(CN3C(=O)C4(CCN(C(=O)C(N)C(F)(F)F)CC4)c4ccncc43)ncc3ccccc23)cn1 (stereo not drawn) [Example 2007] has an EC50 of 4 nM. With COC(=O)N1CCC(n2c(=O)n(Cc3ncc4cc(C#N)ccc4c3CCCCO)c3cnccc32)CC1 [Example 23b, methyl 4-(3-((7-cyano-4-(4-hydroxybutyl)isoquinolin-3-yl)methyl)-2-oxo-2,3-dihydro-1H-imidazo[4,5-c]pyridin-1-yl)piperidine-1-carboxylate] the EC50 was 41 nM. Compound CS(=O)(=O)N1CC2(C1)C(=O)N(Cc1ncc3cc(Cl)ccc3c1-c1cccnc1)c1cnccc12 [Example 162, 1′-((7-chloro-4-(pyridin-3-yl)isoquinolin-3-yl)methyl)-1-(methylsulfonyl)spiro[azetidine-3,3′-pyrrolo[2,3-c]pyridin]-2′(1′H)-one] has an EC50 of 4.8 nM.

Same assay, conditions: human respiratory syncytial virus, HEp-2, 72 h, read-out: EC50 (nm)
In the case of COC(=O)N1CC2(C1)C(=O)N(Cc1ncc3ccccc3c1-c1ccc(C#N)cn1)c1ccccc12 [Example 101, Methyl 1′-((4-(5-cyanopyridin-2-yl)isoquinolin-3-yl)methy)-2′-oxospiro[azetidine-3,3′-indoline]-1-carboxylate], the EC50 is reported as 11 nM. In the case of CC(=O)N1CC2(C1)C(=O)N(Cc1ncc3ccccc3c1-c1cccnc1)c1ccccc12 [Example 153, 1-acetyl-1′-((4-(pyridin-3-yl)isoquinolin-3-yl)methyl)spiro[azetidine-3,3′-indolin]-2′-one], the EC50 is reported as 5.5 nM.
